Experiments:
[1] = test system: spared nerve injury (SNI) rat model; experiment: Von Frey test, mechanical allodynia in spared nerve injury (SNI) rats; format: in vivo; conditions: 50 μg/kg/day intrathecally, from 14 days post injury
Excerpt: (§1) The SNI surgery was constructed as previously described^16, 17. In brief, after animals were anesthetized by isoflurane (1.5-2.5%), a half centimeter incision was made in the middle of the outer. Muscles from the upper layer were bluntly dissected to expose the sciatic nerve and its branches to the left hind leg's common peroneal, tibial, and peroneal nerves. Then, the front two nerves were clipped, and the […]. In the sham-operated group, the sciatic nerve was only exposed, and no clipping or injury was done. After suturing the skin, animals were transferred to an observation box for recovery.
(§2) Intrathecal administration of vehicle or drugs was conducted by direct lumbar puncture in the L5-L6 intervertebral space with a 30-gauge needle following the method of Mestre^18. This procedure was performed under isoflurane anesthesia to permit rapid recovery of the animals. The quality of each injection was ensured by the observation of an injection-induced tail-flick.
Assessment of mechanical allodynia was using the Von Frey test as previously described^17. The animals were placed in plastic cages with metal mesh on the bottom and allowed to acclimatize for at least half an hour before each test. Each Von Frey wire was held perpendicular to the contact surface of the paw until it bent. […]

[2] = test system: spared nerve injury (SNI) rat model; experiment: Acetone test, cold allodynia in SNI rats; format: in vivo; conditions: 50 μg/kg/day intrathecally, from 14 days post injury
Excerpt: as §1, §2
Assessment of cold allodynia was using acetone test^20. Animals were placed in the assessment cage described above for habituation. Acetone was collected by pipette for each trial. […] As the acetone fast spread across the plantar skin and evaporated, noxious withdrawal responses of the hind paw (fluttering, licking, or hanging) against the cold stimuli was recorded. […]

[3] = test system: spared nerve injury (SNI) rat model; experiment: Pin test, hyperalgesia in SNI rats; format: in vivo; conditions: 50 μg/kg/day intrathecally, from 14 days post injury
Excerpt: as §1, §2
Hyperalgesia was evaluated by pin test described previously^20. […] Normal response (brief flinch) or noxious-like response (sustained elevation of the paw with licking, shaking, or grooming) was recorded in 10 repeated trials with a minimum of 10 seconds' gap. Data was expressed as percentage of noxious-like response out of 10 trials.

NRF2 = experiment: Immunoblot of NRF2 expression in L4-L6 DRG of SNI rats; format: in vivo, rat; conditions: 50 μg/kg, DRG collected 3 h after administration, versus vehicle
Excerpt: as §1, §2
For western blotting, L4-6 DRGs were extracted from the ipsilateral surgery of SNI rats and stored in liquid nitrogen to be set aside. DRGs were then sheared in pre-cooled potent RIPA lysate (containing protease and phosphatase inhibitors) and their whole cell lysates were obtained by ultrasonic crushing on ice. […] Immunoreactive bands were detected by chemiluminescence.

ROS level in DRG neurons = ROS level in DRG neurons by DCFH-DA flow cytometry; format: in vivo, rat; conditions: SNI rats, 50 μg/kg i.th, 3 h after administration, versus vehicle
Excerpt: as §1
Intrathecal administration of vehicle or drugs was conducted by direct lumbar puncture in the L5-L6 intervertebral space with a 30-gauge needle following the method of Mestre^18. […]
ROS level of DRG neurons were labeled by ROS Assay Kit (Beyotime Co., Ltd., China) and detected by flow cytometry according to the manufacturer's instructions. […] However, after entering the cell, DCFH-DA is hydrolyzed by cellular esterase to generate DCFH (2′,7′-dichlorodihydrofluorescein), which is non-permeable to the cell membrane, and can be oxidized by ROS into fluorescent DCF (2′,7′-dichlorofluorescein) that can be detected by flow cytometry. The fluorescence intensity represents the intracellular ROS levels.

[4] = test system: voltage-gated sodium (NaV) channels; experiment: Whole-cell voltage clamp of NaV currents in small diameter DRG neurons; format: cell-based, rat; conditions: primary cultured small diameter (<30 μm) DRG neurons, 20 μM overnight
Experimental: DRG neurons were obtained from rodents by acute isolation as previously described^21, 22. After animals were euthanized, the dorsal skin was removed to perform laminectomy to expose DRG, L4-L6 DRGs were rapidly collected from the intervertebral foramen. The collected DRGs were digested in 3 mL bicarbonate-free, serum-free, sterile DMEM (cat. no. 11965; Thermo Fisher Scientific) containing a mixture of enzymes (neutral protease, 3.125 mg/mL (cat. no. LS02104; Worthington) and collagenase Type I 5 mg/mL (cat. no. LS004194; Worthington)), incubated in a shaker at 37° C. […]
(§3) Whole-cell voltage clamp recording was performed as previously described. […] Data were obtained by Patchmaster (HEKA) and analyzed with Fitmaster (HEKA). […]
(§4) NaV currents were measured from rodent DRG small diameter (<30 μm) neurons. […] This process occurs between 0 and 10 mV and can be analyzed as a function of voltage, as inferred from the peak current density (normalized to the cell capacitance (picofarad, pF)); (ii) Inactivation protocol: starting from a clamp potential of −60 mV, a hyperpolarization/depolarization pulse of 1 second in the range of −120 to 20 mV, in steps of +10 mV for 1 second. […] The Boltzmann relevant factors, similar to half-maximal activation (V50) and slope, for the single fits to the data, are calculated, summarized, and compared among groups. […]

NaV1.7 = molecular target: T1, NaV1.7 (Homo sapiens, UniProt Q15858); experiment: Whole-cell voltage clamp of NaV1.7 currents in transfected HEK293 cells; format: cell-based
T1 construct: conflicts with the methods; host or cells: HEK293
T1 sequence (Q15858 whole entry): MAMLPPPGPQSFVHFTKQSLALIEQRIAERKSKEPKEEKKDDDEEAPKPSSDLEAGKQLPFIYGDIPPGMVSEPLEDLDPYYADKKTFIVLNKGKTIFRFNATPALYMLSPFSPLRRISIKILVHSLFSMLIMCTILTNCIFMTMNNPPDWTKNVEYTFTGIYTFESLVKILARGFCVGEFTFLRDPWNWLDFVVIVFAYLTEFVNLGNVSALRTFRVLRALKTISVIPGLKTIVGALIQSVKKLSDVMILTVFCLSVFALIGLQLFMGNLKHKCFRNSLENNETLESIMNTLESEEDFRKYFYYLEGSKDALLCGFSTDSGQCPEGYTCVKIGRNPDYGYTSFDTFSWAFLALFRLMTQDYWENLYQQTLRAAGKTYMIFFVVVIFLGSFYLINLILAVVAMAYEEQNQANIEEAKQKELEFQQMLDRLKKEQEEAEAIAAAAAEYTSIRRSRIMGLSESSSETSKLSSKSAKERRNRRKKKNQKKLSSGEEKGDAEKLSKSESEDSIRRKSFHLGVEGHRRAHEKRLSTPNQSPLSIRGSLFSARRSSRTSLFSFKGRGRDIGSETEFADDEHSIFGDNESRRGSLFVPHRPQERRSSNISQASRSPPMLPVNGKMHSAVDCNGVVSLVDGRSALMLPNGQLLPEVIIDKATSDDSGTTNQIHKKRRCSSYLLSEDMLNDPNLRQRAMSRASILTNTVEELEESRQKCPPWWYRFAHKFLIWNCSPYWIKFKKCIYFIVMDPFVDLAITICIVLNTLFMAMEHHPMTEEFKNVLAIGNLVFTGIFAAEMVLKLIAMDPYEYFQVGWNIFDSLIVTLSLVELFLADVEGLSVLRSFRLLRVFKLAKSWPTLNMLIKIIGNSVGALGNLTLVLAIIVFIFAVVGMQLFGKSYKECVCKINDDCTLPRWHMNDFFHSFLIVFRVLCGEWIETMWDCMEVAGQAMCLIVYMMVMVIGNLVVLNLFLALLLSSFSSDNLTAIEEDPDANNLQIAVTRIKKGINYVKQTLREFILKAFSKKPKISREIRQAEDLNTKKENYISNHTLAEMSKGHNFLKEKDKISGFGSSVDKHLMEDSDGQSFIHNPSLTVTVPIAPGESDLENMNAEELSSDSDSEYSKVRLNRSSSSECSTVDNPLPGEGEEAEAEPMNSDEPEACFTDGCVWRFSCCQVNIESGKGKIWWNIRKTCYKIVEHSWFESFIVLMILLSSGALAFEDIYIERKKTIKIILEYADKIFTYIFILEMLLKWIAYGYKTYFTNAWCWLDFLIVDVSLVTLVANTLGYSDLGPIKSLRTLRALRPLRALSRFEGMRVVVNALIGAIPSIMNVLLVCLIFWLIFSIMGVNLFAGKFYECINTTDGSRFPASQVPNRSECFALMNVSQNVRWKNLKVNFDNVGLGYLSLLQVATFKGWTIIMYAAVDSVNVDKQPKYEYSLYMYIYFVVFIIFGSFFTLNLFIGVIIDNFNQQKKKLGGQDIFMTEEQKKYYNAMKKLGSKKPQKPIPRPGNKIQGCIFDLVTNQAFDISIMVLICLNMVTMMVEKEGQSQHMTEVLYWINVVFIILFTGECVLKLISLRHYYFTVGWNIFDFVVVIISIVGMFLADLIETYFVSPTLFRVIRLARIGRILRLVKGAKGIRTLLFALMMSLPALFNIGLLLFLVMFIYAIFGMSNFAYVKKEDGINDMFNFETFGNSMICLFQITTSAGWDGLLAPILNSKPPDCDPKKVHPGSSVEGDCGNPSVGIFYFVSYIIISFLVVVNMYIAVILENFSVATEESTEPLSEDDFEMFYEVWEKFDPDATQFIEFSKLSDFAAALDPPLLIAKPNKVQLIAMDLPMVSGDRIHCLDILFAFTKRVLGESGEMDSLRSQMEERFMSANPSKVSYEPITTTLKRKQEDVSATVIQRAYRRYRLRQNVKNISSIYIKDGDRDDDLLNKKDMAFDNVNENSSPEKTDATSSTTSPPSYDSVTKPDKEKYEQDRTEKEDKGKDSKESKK
Experimental: HEK293 cells were purchased from Shanghai Institute of Biological Sciences, Chinese Academy of Sciences. HEK293 cells were cultured in medium (DMEM containing 10% fetal bovine serum and 1% penicillin/streptomycin) in an atmosphere of 5% CO2 at 37° C.
The NaV1.7 sequence was synthesized by GenScript (Nanjing, Jiangsu Province, China) and inserted into the pcDNA3.1 (+)-C-DYK plasmid between the BamH1 and EcoRI restriction sites. The empty plasmid of pcDNA3.1 purchased from Shenzhen Yanming Biotechnology Company was used as a mock transfection control. […]
as §3, §4

For `Cc1ccc(-c2noc(-c3ccc(F)c(F)c3)n2)cn1` [Compound 1, 5-(3,4-difluorophenyl)-3-(6-methylpyridin-3-yl)-1,2,4-oxadiazole], the “max inhibiting rate in mechanical allodynia” value [1] was “about 70.0%”, the “max inhibiting rate in cold allodynia” value [2] was about 35.0% and the “max inhibiting rate in hyperalgesia” value [3] was about 37.5%. For the same molecule, the “expression level of NRF2 in L4-L6 DRG” value (NRF2) was “increased the expression level of NRF2”, the “ROS level in DRG neurons (DCF staining)” value (ROS level in DRG neurons) was “decreased” and the “inhibition of NaV currents” value [4] was “significant inhibition of NaV currents”. For the same molecule, the “inhibition of NaV1.7 current density under excessive oxidative stress” value (NaV1.7; HEK293 cells transfected with NaV1.7, pre-treated with H2O2 (500 μM, 20 min), then 20 μM overnight) was “Same inhibiting properties” and the “inhibition of NaV1.7 current density” value (NaV1.7; HEK293 cells transfected with NaV1.7 plasmid, 20 μM overnight) was “significantly inhibited NaV1.7 current density”.

— patent US20250221976A1, “COMPOUNDS, COMPOSITIONS AND METHODS OF TREATING NEUROPATHIC PAIN” (THE UNIVERSITY OF HONG KONG, priority 2024, published 2025)
